Laboratory results as given in ChEMBL document CHEMBL3352218, “Structural basis for inhibition of mycobacterial and human adenosine kinase by 7-substituted 7-(Het)aryl-7-deazaadenine ribonucleosides” (J Med Chem, 2014).
Values after ≈ are worked out from the molar mass of the structure shown. Active and inactive are the calls of the source. The rule behind the calls is not given here.

How the values were obtained:
MRC5 = test: Cytotoxicity against human MRC5 cells by MTT assay; assay type: functional
[1] = tested on: Mycobacterium tuberculosis; test: Antimycobacterial activity against Mycobacterium tuberculosis H37Rv My 331/88 assessed as microbial growth inhibition incubated for 14 days; assay type: functional; details: H37Rv My 331/88, 336 h
[2] = tested on: Mycobacterium tuberculosis; test: Activity of Mycobacterium tuberculosis ADK expressed in Escherichia coli BL21(DE3) cells assessed as compound phosphorylation by measuring conversion of compound to 5'-phosphate
[3] = Inhibition of Mycobacterium tuberculosis ADK expressed in Escherichia coli BL21(DE3) cells using [3H]adenosine by liquid scintillation counting method
BJ = test: Cytotoxicity against human BJ cells by MTT assay; assay type: functional
Adenosine kinase [4] = molecular target: T1, Adenosine kinase (Homo sapiens, UniProt P55263); test: Inhibition of human ADK expressed in Escherichia coli BL21(DE3) cells using [3H]adenosine by liquid scintillation counting method
Target sequence in this assay (P55263 whole entry): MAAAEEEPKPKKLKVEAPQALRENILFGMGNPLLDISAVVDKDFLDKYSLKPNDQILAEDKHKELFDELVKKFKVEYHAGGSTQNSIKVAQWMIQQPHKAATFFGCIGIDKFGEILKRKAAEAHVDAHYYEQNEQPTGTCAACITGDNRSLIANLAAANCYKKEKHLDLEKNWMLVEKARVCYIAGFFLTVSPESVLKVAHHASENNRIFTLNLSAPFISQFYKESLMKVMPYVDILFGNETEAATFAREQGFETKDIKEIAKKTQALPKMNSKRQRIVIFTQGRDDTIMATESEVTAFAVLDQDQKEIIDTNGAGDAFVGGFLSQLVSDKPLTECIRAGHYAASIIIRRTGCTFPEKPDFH

Adenosine kinase [5] = molecular target: T1, Adenosine kinase; test: Activity of human ADK expressed in Escherichia coli BL21(DE3) cells assessed as compound phosphorylation by measuring conversion of compound to 5'-phosphate; design: concentration or dose not given beside the values
Target sequence in this assay (P55263 2-362 limits assumed): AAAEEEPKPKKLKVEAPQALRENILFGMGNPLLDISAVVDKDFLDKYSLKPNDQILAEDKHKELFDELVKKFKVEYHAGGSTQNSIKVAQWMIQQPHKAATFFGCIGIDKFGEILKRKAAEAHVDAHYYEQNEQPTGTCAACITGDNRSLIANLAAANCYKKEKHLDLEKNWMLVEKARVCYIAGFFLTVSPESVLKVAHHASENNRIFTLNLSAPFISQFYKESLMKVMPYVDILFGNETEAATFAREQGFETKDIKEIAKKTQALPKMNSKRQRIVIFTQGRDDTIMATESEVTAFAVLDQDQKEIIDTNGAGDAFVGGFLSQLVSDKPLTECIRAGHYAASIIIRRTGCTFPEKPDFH

Row | Structure (SMILES) | CC50 (MRC5) [µM] | MIC [1] [µM] | Activity [2] | IC50 [3] [µM] | CC50 (BJ) [µM] | IC50 (Adenosine kinase [4]) [µM] | Activity (Adenosine kinase [5]) [%]
1 | Nc1ncnc2c1c(-c1ccccc1)cn2[C@@H]1O[C@H](CO)[C@@H](O)[C@H]1O | 21 | 8 (≈ 2.74 µg/mL) | inactive | > 10 | 50.9 | – | –
2 | Nc1ncnc2c1c(-c1ncc[nH]1)cn2[C@@H]1O[C@H](CO)[C@@H](O)[C@H]1O | 0.15 | > 250 | inactive | > 3 | 1.48 | > 20 | 19
3 | COc1cc(-c2cn([C@@H]3O[C@H](CO)[C@@H](O)[C@H]3O)c3ncnc(N)c23)cc(OC)c1OC | > 100 | 8 (≈ 3.46 µg/mL) | inactive | > 10 | > 100 | > 10 | –
4 | Nc1ncnc2c1c(-c1cn[nH]c1)cn2[C@@H]1O[C@H](CO)[C@@H](O)[C@H]1O | 71.2 | 125 (≈ 41.5 µg/mL) | inactive | > 5 | 48.9 | > 10 | 9
5 | Nc1ncnc2c1c(-c1ccc(-c3ccc4ccccc4c3)cc1)cn2[C@@H]1O[C@H](CO)[C@@H](O)[C@H]1O | 64.2 | 62.5 (≈ 29.3 µg/mL) | inactive | > 10 | 0.12 | > 20 | –
6 | Nc1ncnc2c1c(-c1cc[nH]n1)cn2[C@@H]1O[C@H](CO)[C@@H](O)[C@H]1O | 0.18 | > 250 | inactive | > 10 | 9.51 | – | 7
7 | CC(C)(C)c1ccc(-c2cn([C@@H]3O[C@H](CO)[C@@H](O)[C@H]3O)c3ncnc(N)c23)cc1 | 96.3 | 62.5 (≈ 24.9 µg/mL) | inactive | > 10 | > 100 | > 20 | –
8 | Nc1ncnc2c1c(-c1ccc3c4c(cccc14)CC3)cn2[C@@H]1O[C@H](CO)[C@@H](O)[C@H]1O | > 100 | 16 (≈ 6.7 µg/mL) | inactive | > 10 | 23.1 | > 10 | –
9 | Nc1ncnc2c1c(-c1ccc[nH]1)cn2[C@@H]1O[C@H](CO)[C@@H](O)[C@H]1O | 99.6 | 62.5 (≈ 20.7 µg/mL) | inactive | 4.4 | > 100 | > 20 | 6
10 | Nc1ncnc2c1c(-c1cccc3c1Sc1ccccc1S3)cn2[C@@H]1O[C@H](CO)[C@@H](O)[C@H]1O | 68.5 | 62.5 (≈ 30 µg/mL) | inactive | 2.06 | > 100 | > 10 | –
11 | Nc1ncnc2c1c(-c1c[nH]cn1)cn2[C@@H]1O[C@H](CO)[C@@H](O)[C@H]1O | 0.33 | > 250 | inactive | > 10 | 0.12 | 13 | 47
12 | CC(C)Oc1ccc(-c2cn([C@@H]3O[C@H](CO)[C@@H](O)[C@H]3O)c3ncnc(N)c23)cc1 | 50.2 | 32 (≈ 12.8 µg/mL) | inactive | 13.1 | 59.9 | > 10 | –
13 | COc1ccc(-c2cn([C@@H]3O[C@H](CO)[C@@H](O)[C@H]3O)c3ncnc(N)c23)cc1 | 61.4 | 16 (≈ 5.96 µg/mL) | inactive | > 10 | 21.9 | > 5 | –
14 | Nc1ncnc2c1c(-c1cc3ccccc3c3ccccc13)cn2[C@@H]1O[C@H](CO)[C@@H](O)[C@H]1O | 66 | 32 (≈ 14.2 µg/mL) | inactive | > 10 | > 100 | > 10 | –
15 | NNC(=O)c1ccncc1 [ISONIAZID] | – | 0.5 (≈ 0.0686 µg/mL) | – | – | – | – | –
16 | Cc1ccc(-c2cn([C@@H]3O[C@H](CO)[C@@H](O)[C@H]3O)c3ncnc(N)c23)cc1C | 37.9 | 8 (≈ 2.96 µg/mL) | inactive | 4.9 | 57.3 | > 20 | –
17 | Nc1ncnc2c1c(-c1ccoc1)cn2[C@@H]1O[C@H](CO)[C@@H](O)[C@H]1O | 67.9 | 16 (≈ 5.32 µg/mL) | inactive | > 10 | 91.5 | – | 9
18 | Nc1ncnc2c1c(-c1ccc(-c3ccccc3)cc1)cn2[C@@H]1O[C@H](CO)[C@@H](O)[C@H]1O | 93.7 | 4 (≈ 1.67 µg/mL) | inactive | 7.67 | 40.6 | > 20 | –
19 | Nc1ncnc2c1c(-c1cc3ccccc3o1)cn2[C@@H]1O[C@H](CO)[C@@H](O)[C@H]1O | 35.1 | 16 (≈ 6.12 µg/mL) | inactive | 1.8 | 21.2 | – | –
20 | Nc1ncnc2c1c(-c1cccs1)cn2[C@@H]1O[C@H](CO)[C@@H](O)[C@H]1O | 39.4 | 8 (≈ 2.79 µg/mL) | inactive | > 10 | 65.4 | – | 2
21 | Nc1ncnc2c1c(-c1cccc3c1oc1ccccc13)cn2[C@@H]1O[C@H](CO)[C@@H](O)[C@H]1O | 100 | 4 (≈ 1.73 µg/mL) | inactive | 0.6 | > 100 | > 10 | –
22 | Nc1ncnc2c1c(-c1cccc3ccccc13)cn2[C@@H]1O[C@H](CO)[C@@H](O)[C@H]1O | 94.4 | 32 (≈ 12.6 µg/mL) | inactive | > 10 | 90.6 | – | –
23 | Nc1ncnc2c1c(-c1ccsc1)cn2[C@@H]1O[C@H](CO)[C@@H](O)[C@H]1O | 42.5 | 8 (≈ 2.79 µg/mL) | inactive | 6.6 | 12.9 | – | 2
24 | Nc1ncnc2c1c(-c1ccc3ccccc3c1)cn2[C@@H]1O[C@H](CO)[C@@H](O)[C@H]1O | 13.6 | 2 (≈ 0.785 µg/mL) | inactive | 5.33 | 13.9 | – | –
25 | CC(C)c1ccc(-c2cn([C@@H]3O[C@H](CO)[C@@H](O)[C@H]3O)c3ncnc(N)c23)cc1 | 52.9 | 16 (≈ 6.15 µg/mL) | inactive | > 10 | 63.9 | > 20 | –
26 | Nc1ncnc2c1c(-c1ccc(C(F)(F)F)cc1)cn2[C@@H]1O[C@H](CO)[C@@H](O)[C@H]1O | 78.8 | 4 (≈ 1.64 µg/mL) | inactive | > 10 | 62 | > 10 | –
27 | CSc1ccc(-c2cn([C@@H]3O[C@H](CO)[C@@H](O)[C@H]3O)c3ncnc(N)c23)cc1 | 45.6 | 4 (≈ 1.55 µg/mL) | inactive | > 10 | 18 | – | –
28 | Nc1ncnc2c1c(-c1ccc(COc3cccc4ccccc34)cc1)cn2[C@@H]1O[C@H](CO)[C@@H](O)[C@H]1O | 92.1 | 16 (≈ 7.98 µg/mL) | inactive | > 10 | > 100 | > 20 | –
29 | Nc1ncnc2c1c(-c1ccc3c(c1)OCO3)cn2[C@@H]1O[C@H](CO)[C@@H](O)[C@H]1O | 46 | 8 (≈ 3.09 µg/mL) | inactive | > 10 | 15.5 | > 10 | –
30 | Nc1ncnc2c1c(/C=C/c1ccccc1)cn2[C@@H]1O[C@H](CO)[C@@H](O)[C@H]1O | 48.2 | 8 (≈ 2.95 µg/mL) | inactive | 0.9 | 19.6 | > 10 | –
